melting point	Structure (SMILES)
161 to 165 °C	O=C(NC(Cc1c[nH]cn1)C(=O)NC(Cc1ccc(OCc2ccccc2)cc1)C(=O)NCCOCc1ccccc1)OCc1ccccc1 (stereo not given)
262 to 264 °C	O=c1cc(-c2cccs2)c2ccccc2[nH]1
50 to 51 °C	CCOC(=O)C(Cc1ccc(C(F)(F)F)cc1)C(=O)c1cccc(F)c1 (stereo not given)
184 to 187 °C	O=C(O)C(Cc1ccc(O)cc1)NC(=O)C(CS)C(F)(F)F (stereo not given)
180 to 182 °C	Cn1ncc2c1-c1c(Oc3ccc4c(c3)OCO4)sc(C(=O)c3cccnc3)c1CC2
105 °C	CCC(C)N(C)C(=O)c1cc(-c2ccccc2)c2sccc2c1 (stereo not given)
52 to 56 °C	Cc1ccccc1C(Oc1cc(OCc2ccc3c(c2)OCO3)ccc1C#N)C(=O)O (racemic)
174 to 176 °C	O=C(O)c1cc2cc(Cl)ccc2nc1N[C@@H](Cc1ccc([N+](=O)[O-])cc1)C(=O)O
> 215 °C	COc1cc2c(cc1C(F)(F)F)N(C(=O)Nc1cccc(S(=O)(=O)Nc3cccnc3)c1)CC2
122 to 124 °C	COC(=O)c1cc(Nc2ccccc2)c(Nc2ccc(OC)cc2)cc1C(=O)OC
65 to 66 °C	CCSC(C)C(=O)N(CC)c1cn(-c2cccnc2)nc1Cl (stereo not given)
88 to 91 °C	CN(C(=O)OC(C)(C)C)c1sc(-c2cccnc2)nc1Br
182 to 183 °C	Oc1ccc(N=Cc2ccccc2)cc1
223 to 226 °C	C#Cc1cc(Nc2ncnc3cnc(F)cc23)ccc1F
105 to 107 °C	CCOc1ccc(C)cc1NC(=O)Nc1ccc(N2CCN(C(=O)OC(C)(C)C)CC2)cc1
> 220 °C	N=c1[nH]c(=O)c2nc[nH]c2c(=O)[nH]1
115 °C	CC(=O)Nc1c(C#N)cnn1-c1c(Cl)cc(Cl)c(Cl)c1Cl
75 °C	CCc1cc(N)c(C(=O)OC)c(CC)n1
173 to 174 °C	COC(=O)C1C(C)CC2C3CCC4CC(O)CCC4(C)C3C(=O)CC21C (stereo not given)
186 to 187 °C	CS(=O)(=O)c1ccccc1-c1cc(F)cc(OCc2ccc3c(-c4ccoc4)cc(C#N)nc3c2)c1
202 to 206 °C	CC(=O)SCC(Cc1ccccc1)C(=O)Nc1cc(C(=O)O)ccc1O (stereo not given)
166 to 168 °C	Oc1ccccc1-c1nc(-c2ccccc2O)n(Cc2ccccc2)n1
130 to 132 °C	CCOC(=O)C1=Cc2cc(OCC(=O)c3ccc(Br)cc3)ccc2OC1C(F)(F)F (stereo not given)
228 to 229 °C	COc1c(C(=O)Nc2ccc(N(C(C)=O)S(C)(=O)=O)cc2)cc(N2CCC(=O)NC2=O)cc1C(C)(C)C

melting point	Structure (SMILES)
51 °C	CCCCC[C@H]1CC[C@H](CCCCc2ccc(C#N)cc2)CC1
296 to 298 °C	Cc1[nH]cc(C(N)=O)c(=O)c1I
216 to 218 °C	CS(=O)(=O)c1ccc(C(=O)Nc2ccc(-n3nc(C(F)(F)F)cc3C(F)(F)F)cc2)cc1
51.5 to 56.3 °C	CC(=N)NC/C(F)=C\CC[C@H](N)C(=O)O
36 °C	Cc1ccc(-c2nc(CCCCCCOC(C)(C)C#N)c(C)o2)cc1
106 to 108 °C	Fc1ccc(N2CCN(CCCc3cnc4n3CCCC4)CC2)cc1
58 °C	Nc1cc(Cl)c(F)cc1-c1cccc(Cl)c1
128 to 131 °C	NC(=O)N(O)Cc1ccco1
104 to 108 °C	Cn1nc(-c2ccccc2Cl)nc1-c1ccc(Oc2ccc(C(F)(F)F)cn2)cc1Cl
183 to 184 °C	CNc1nnc(-c2ccc3ncn(-c4ccc(OC(F)(F)F)cc4)c3c2)o1
171 to 173 °C	CCOCc1nc2c(N)nc3cccnc3c2n1CC1(O)CCCCC1
53 to 57 °C	CCCCCCCCCCCCSC(C)(C)C=NNC(=O)CCc1cc(C(C)(C)C)c(O)c(C(C)(C)C)c1
150 °C	N#Cc1ccc([C@@H]2CN(S(=O)(=O)c3cccc(C(=O)O)c3)C[C@@]23NC(=O)N(c2cc(Cl)cc(Cl)c2)C3=O)cc1 (relative stereo)
69 to 71 °C	CC(=O)ON1Cc2ccccc2C1=O
235 to 237 °C	Oc1ccc2c(c1)COc1c-2cc2ccc(O)cc2c1-c1ccc(F)c(F)c1
72 to 74 °C	COP(C)(=O)C1CC(c2ccccc2)=NO1 (stereo not given)
90 to 95 °C	Cc1nc(-c2cccc(CN3C(=O)C4(COc5cc6c(cc54)OCCO6)c4ccccc43)c2)no1 (stereo not given)
142 °C	CC(=O)c1ccc(Cl)c(S(=O)(=O)Nc2ccccc2)c1
105 to 107 °C	COC(=O)c1ccc(C(=S)Nc2ccccc2OC)cc1
> 260 °C	COc1nc(Cl)nc(NC#N)n1
82 to 86 °C	C#CCn1c(-c2cccc(C=O)c2)nc(CC)c(CC)c1=O
251 to 253 °C	NC(=O)c1c(-c2cccc(F)c2)c(Cl)n2c1CN(C(=O)N[C@H]1CC[C@H](O)CC1)CC2
156 to 166 °C	Cc1nn(C)c2ccc(C(=O)O)c(C3=NC(C)(C(C)C)C(=O)N3)c12 (stereo not given)
159 to 161 °C	COc1ccc(Cn2nccc2-c2nn(-c3cccc(C(F)(F)F)c3)ccc2=O)cc1

melting point	Structure (SMILES)
75 to 76 °C	CCCCOc1cc(F)ccc1[N+](=O)[O-]
50 to 51 °C	Cc1ccc2c(c1C)OCC2c1ccc(C(C)C)cc1 (stereo not given)
193 to 196 °C	O=C1CC(c2cccc(-n3ccnc3)c2)=Nc2ccc(C#Cc3ccccc3)cc2N1
120 to 121 °C	OC1=Cc2ccccc2C=Cc2ccccc21
279 °C	On1nnc2ccc(C3CCCc4cncn43)cc21 (stereo not given)
192 °C	O=C(C[C@@H]1COCCO1)N[C@H]1CC[C@H](CCN2CCN(c3nccc4c3CCO4)CC2)CC1
234 to 235 °C	CCCOc1ccccc1-c1nc2nc(OC)nnc2c(=O)[nH]1
165 °C	COc1cc(Nc2nccc(C(=O)c3ccccc3)n2)cc(OC)c1OC
184 to 185 °C	Cc1cccc(C(=O)Nc2cn(C3CCCCO3)nc2C(=O)NCC(F)(F)F)n1 (stereo not given)
205 to 208 °C	COc1ccc(-c2nc(N)n3nc(-c4ccco4)nc3n2)cc1OC
91 to 92 °C	CCCCCCCN1C(=O)C2CC(c3ccc([N+](=O)[O-])cc3)(C2)C1=O
91 to 96 °C	COCCN1CCc2ccc(Nc3ncc(Cl)c(Nc4ccc(N5CCOCC5)cc4OCCC#N)n3)cc2CC1
97.6 °C	Clc1ccc(C(Cn2ccnc2)C2CCCC2)c(Cl)c1 (stereo not given)
68 to 70 °C	CCc1nc(Cl)c(C(=O)NC)n1Cc1ccc2oc(-c3ccccc3N)c(Br)c2c1
171 to 172 °C	O=C1C=C(NC2CCN(Cc3ccccc3)CC2)CCC1
65 to 68 °C	C#CCc1nc(-c2ccc(C)cc2)oc1C
132 to 134 °C	Cc1cccc(N2CCN(Cc3n[nH]c4ccccc34)CC2)c1
145 to 148 °C	CCOc1ccc(C2=NN(C3CCN(C(=O)NC(C)(C)C)CC3)C(=O)[C@@H]3CC=CC[C@H]23)cc1OCC
242 to 245 °C	CN(C)S(=O)(=O)c1cc2cc(C(=O)O)oc2c(Cl)c1Cl
73 to 77 °C	COC(=O)c1cc2c(cc1N)OCCO2
242 to 243 °C	Cc1cc2c(-c3ccccc3Cl)c(N)c(=O)n(C)c2cc1C
138 to 139 °C	COc1ccc2c(CN3CCC[C@H]3CO)cc3cc4c(cc3c2c1)OCO4
105 to 107 °C	c1ccc(C(CC2=NCCN2)c2ccncc2)cc1 (stereo not given)
251 to 254 °C	O=C1CCC2=C1C(c1ccc([N+](=O)[O-])s1)C1=C(CCS1)N2 (stereo not given)

melting point	Structure (SMILES)
200 °C	OC1CSC(Oc2ccc(-c3ccco3)cc2)C(O)C1O (stereo not given)
293 to 296 °C	Cn1c(-c2n[nH]c(=O)[nH]2)nc2ccccc21
187 to 189 °C	S=c1[nH]ccc2ccsc12
109 °C	CCN(C(=O)c1nn(-c2ccc(Cl)cc2Cl)c(-c2ccc(Cl)cc2)c1C)N1CC=CCC1
123 to 124 °C	COc1ccc(CC(=O)NCCc2ccccc2)cc1OC
167 to 169 °C	O=C(NC12CC3CC(CC(C3)C1)C2)c1ccccc1C(c1ccc(O)cc1)c1ccc(O)cc1
168 to 170 °C	OC(Cc1ncc[nH]1)(Cn1cncn1)c1ccc(Cl)cc1Cl (stereo not given)
78 to 80 °C	CN(C)c1nn(C(=O)Cl)c(=O)n1C
300 °C	COc1ccc(N2CCN(c3ccc(-n4cn[nH]c4=O)cc3)CC2)cc1
140 to 142 °C	O=CNC[C@H](O)C(=O)OC=O
140 to 141 °C	CC(C)(C)OC(=O)NC(Cc1ccccc1)C(O)CNCC(O)C(Cc1ccccc1)NC(=O)SC(C)(C)C (stereo not given)
101 °C	COC(=O)C1=C(Nc2ccccc2N)CSC1
199 to 200 °C	O=C(NCc1ccccc1Cl)Nc1ccc([N+](=O)[O-])cc1O
141 to 142 °C	Cc1ccc(Cc2cnc(NCCCCc3ncc([N+](=O)[O-])cc3C)[nH]c2=O)cn1
67 to 68 °C	CC(C)c1cc(CCCOc2nn(C)cc2CC(=O)O)n(Cc2ccc(Cl)cc2Cl)n1
107 to 108 °C	COc1cc(COc2nn(-c3ccccc3)cc2/C=C/P(=O)(OC)OC)ccc1OCc1nc(-c2ccco2)oc1C
144 to 146 °C	COC(=O)c1ccc(-c2nccc3ccn(S(=O)(=O)c4ccc(OC)cc4)c23)cc1
206 to 208 °C	COc1ccc(C(=O)Nc2ccccc2)cc1NS(=O)(=O)c1ccc(C#N)cc1
176 to 178 °C	OC1(c2ccccc2)c2ccccc2C2=NC3CCCCC3N21 (stereo not given)
81 °C	COc1cc(C=O)cc2c1OCCC2
78 to 80 °C	CCCCCC(Oc1ccc(C2=CCCCC2)cc1)C(=O)O (stereo not given)
120 °C	CC(=O)OC1CSC(Oc2cncc(-c3ccc(F)cc3C)c2)C(OC(C)=O)C1OC(C)=O (stereo not given)
169 to 174 °C	O=c1c2c(Cl)cc(Cl)cc2n(Cc2ccccc2)c(=O)n1-c1ccccc1
245 to 246 °C	CC(=O)O[C@H]1[C@H](N2CCCNC2=NC#N)c2cc(C#N)ccc2OC1(C)C (relative stereo)

Structure (SMILES)	melting point
O=C(O)C(Br)c1ccc(Cl)cc1 (stereo not given)	92 to 93 °C
Cc1nnc2n1-c1sc(Cl)cc1C(c1ccccc1C(F)(F)F)=NC2	193 to 195 °C
O=C1NCCC1Cc1ccc(Cl)nc1 (stereo not given)	117 to 118 °C
CNC1=Nc2ccc(Cl)cc2C(c2ccc[nH]2)=NC1	251 °C
